Results: PubChem BioAssay AID248 (DTP/NCI, 2004)
Where “and” joins values, the source holds several entries; their conditions need not be identical. Equal values may be shown once. Inconclusive results and toxic doses are left out. Cut-off read from the data, not from the text of the source: active = T/C of 150% or more; inactive = T/C below 125%.

System: L1210 leukemia ip in BDF1 mice, survival T/C
Experiment: NCI In Vivo Anticancer Drug Screen. Data for tumor model L1210 Leukemia (intraperitoneal) in B6D2F1 (BDF1) mice
Details: endpoint: mean survival time, higher = longer survival
How it was run: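 Antitumor effect is assessed in tumor-bearing animals. Survival in the compound arm is compared with a vehicle-dosed control arm and expressed as their quotient.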

[1] = dose: 100.0 mg/kg/injection, schedule: Q04DX003 (ip), vehicle: saline with Tween-80
[2] = dose: 200.0 mg/kg/injection, schedule: Q04DX003 (ip), vehicle: saline with Tween-80
[3] = dose: 400.0 mg/kg/injection, schedule: Q04DX003 (ip), vehicle: saline with Tween-80
[4] = dose: 100.0 mg/kg/injection, schedule: Q01DX001 (ip), vehicle: saline
[5] = dose: 200.0 mg/kg/injection, schedule: Q01DX001 (ip), vehicle: saline
[6] = dose: 400.0 mg/kg/injection, schedule: Q01DX001 (ip), vehicle: saline
[7] = dose: 100.0 mg/kg/injection, schedule: Q04DX003 (ip), vehicle: Klucel (hydroxypropylcellulose) (HPC)
[8] = dose: 200.0 mg/kg/injection, schedule: Q04DX003 (ip), vehicle: Klucel (hydroxypropylcellulose) (HPC)
[9] = dose: 400.0 mg/kg/injection, schedule: Q04DX003 (ip), vehicle: Klucel (hydroxypropylcellulose) (HPC)
[10] = dose: 75.0 mg/kg/injection, schedule: Q01DX001 (ip), vehicle: saline
[11] = dose: 100.0 mg/kg/injection, schedule: Q01DX001 (ip), vehicle: Klucel (hydroxypropylcellulose) (HPC)
[12] = dose: 200.0 mg/kg/injection, schedule: Q01DX001 (ip), vehicle: Klucel (hydroxypropylcellulose) (HPC)
[13] = dose: 100.0 mg/kg/injection, schedule: Q01DX009 (ip), vehicle: saline
[14] = dose: 100.0 mg/kg/injection, schedule: Q04DX003 (ip), vehicle: saline
[15] = dose: 200.0 mg/kg/injection, schedule: Q01DX009 (ip), vehicle: saline
[16] = dose: 200.0 mg/kg/injection, schedule: Q04DX003 (ip), vehicle: saline
[17] = dose: 400.0 mg/kg/injection, schedule: Q04DX003 (ip), vehicle: saline
[18] = dose: 100.0 mg/kg/injection, schedule: Q01DX009 (ip), vehicle: Klucel (hydroxypropylcellulose) (HPC)
[19] = dose: 200.0 mg/kg/injection, schedule: Q01DX009 (ip), vehicle: Klucel (hydroxypropylcellulose) (HPC)
[20] = dose: 400.0 mg/kg/injection, schedule: Q01DX001 (ip), vehicle: Klucel (hydroxypropylcellulose) (HPC)
[21] = dose: 400.0 mg/kg/injection, schedule: Q01DX009 (ip), vehicle: Klucel (hydroxypropylcellulose) (HPC)
[22] = dose: 50.0 mg/kg/injection, schedule: Q01DX009 (ip), vehicle: saline
[23] = dose: 100.0 mg/kg/injection, schedule: Q01DX009 (ip), vehicle: saline with Tween-80
[24] = dose: 200.0 mg/kg/injection, schedule: Q01DX009 (ip), vehicle: saline with Tween-80
[25] = dose: 400.0 mg/kg/injection, schedule: Q01DX009 (ip), vehicle: saline with Tween-80
[26] = dose: 150.0 mg/kg/injection, schedule: Q01DX001 (ip), vehicle: saline

Measured: T/C

Nc1c(N)c2ccccc2c2ccccc12
inactive: dose: 50.0 mg/kg/injection, schedule: Q01DX001 (ip), vehicle: carboxymethylcellulose (CMC) 115 % of control | dose: 100.0 mg/kg/injection, schedule: Q01DX001 (ip), vehicle: carboxymethylcellulose (CMC) 110 % of control | dose: 200.0 mg/kg/injection, schedule: Q01DX001 (ip), vehicle: carboxymethylcellulose (CMC) 117 % of control | dose: 400.0 mg/kg/injection, schedule: Q01DX001 (ip), vehicle: carboxymethylcellulose (CMC) 110 % of control

CC(C)c1ccc(OS(=O)(=O)c2cccc([N+](=O)[O-])c2)cc1
inactive: [1] 100 % of control | [2] 100 % of control | [3] 98 % of control

Cc1ccc(-n2cnc3c(=O)[nH]cnc32)cc1
inactive: [4] 98 % of control | [5] 93 % of control | [6] 93 % of control

NC1CCC(CC2CCCC2)CC1 (centres undefined)
inactive: dose: 25.0 mg/kg/injection, schedule: Q04DX003 (ip), vehicle: Klucel (hydroxypropylcellulose) (HPC) 96 % of control | dose: 50.0 mg/kg/injection, schedule: Q04DX003 (ip), vehicle: Klucel (hydroxypropylcellulose) (HPC) 93 % of control | [7] 104 % of control and 90 % of control

CCC(CO)Nc1nc2cc(Br)ccc2c2ccc(Br)cc12 (centres undefined)
inactive: [7] 90 % of control | [8] 87 % of control | [9] 94 % of control

CCCCCCCCCCCC[Si](Cl)(Cl)Cl
inactive: [10] 105 % of control

CCN(CC)C(=O)c1cncc(-c2ccccc2)c1
inactive: [11] 97 % of control | [12] 98 % of control

O=C(c1cccnc1)n1cc2c(n1)C1=C(CCCC1)CC2
inactive: [7] 90 % of control | [8] 89 % of control | [9] 86 % of control

CCC(S)C(=O)Nc1ccccc1 (centres undefined)
inactive: [1] 107 % of control | [2] 90 % of control | [3] 91 % of control

CCOC(=O)C1(C)OCCO1
inactive: [13] 101 % of control | [14] 103 % of control | [15] 100 % of control | [16] 96 % of control | dose: 400.0 mg/kg/injection, schedule: Q01DX009 (ip), vehicle: saline 95 % of control | [17] 99 % of control

COc1cc(/C=C(/NC(=O)c2ccccc2)C(=O)O)ccc1O
inactive: [4] 94 % of control | [14] 96 % of control | [5] 89 % of control | [16] 97 % of control | [6] 96 % of control | [17] 88 % of control

Cc1ccc(S(=O)(=O)OCCS(C)(=O)=O)cc1
inactive: [11] 102 % of control | [18] 103 % of control | [7] 101 % of control | [12] 106 % of control | [19] 101 % of control | [8] 103 % of control | [20] 104 % of control | [21] 101 % of control | [9] 97 % of control

CN(C)CCC#N
inactive: dose: 50.0 mg/kg/injection, schedule: Q01DX001 (ip), vehicle: saline 97 % of control | [22] 106 % of control | [4] 97 % of control | [13] 108 % of control | [14] 100 % of control | [5] 100 % of control | [15] 112 % of control | [16] 100 % of control | [6] 97 % of control

O=C(Nc1ccccc1)C(Cl)Cl
inactive: [23] 96 % of control | [24] 91 % of control | [25] 96 % of control

O=C(O)CCCCCCCCC(=O)c1ccccc1
inactive: [23] 95 % of control | [24] 91 % of control | [25] 95 % of control

BrCCCC1CCCCC1
inactive: [18] 104 % of control | [7] 100 % of control | [19] 97 % of control | [8] 104 % of control | [21] 92 % of control | [9] 105 % of control

Nc1ncnc2c1ncn2C1CC(COP(=O)(O)O)C(O)C1O (centres undefined)
inactive: dose: 37.0 mg/kg/injection, schedule: Q04DX003 (ip), vehicle: saline 105 % of control | [10] 107 % of control | dose: 75.0 mg/kg/injection, schedule: Q04DX003 (ip), vehicle: saline 110 % of control | [26] 87 % of control | dose: 150.0 mg/kg/injection, schedule: Q04DX003 (ip), vehicle: saline 100 % of control

O=C1/C(=C\c2ccccc2)Sc2cc[nH]c21
inactive: [11] 96 % of control | [12] 105 % of control | [20] 96 % of control

CCOc1ccc2c(ccc(/C=C\c3ccc(O)c4ccccc34)[n+]2C)c1
inactive: dose: 15.0 mg/kg/injection, schedule: Q01DX001 (ip), vehicle: saline 96 % of control | dose: 30.0 mg/kg/injection, schedule: Q01DX001 (ip), vehicle: saline 96 % of control | dose: 60.0 mg/kg/injection, schedule: Q01DX001 (ip), vehicle: saline 97 % of control | [10] 106 % of control | [26] 101 % of control

CN(C)c1ncnc2c1nnn2C1OC(CO)C(O)C1O (centres undefined)
inactive: dose: 178.0 mg/kg/injection, schedule: Q01DX001 (ip), vehicle: saline 106 % of control | dose: 267.0 mg/kg/injection, schedule: Q01DX001 (ip), vehicle: saline 106 % of control | [6] 117 % of control

OCCOCCN1CCN(C(c2ccccc2)c2ccc(Cl)cc2)CC1 (centres undefined)
inactive: dose: 12.5 mg/kg/injection, schedule: Q01DX009 (ip), vehicle: saline 103 % of control | dose: 25.0 mg/kg/injection, schedule: Q01DX009 (ip), vehicle: saline 103 % of control | dose: 25.0 mg/kg/injection, schedule: Q04DX003 (ip), vehicle: saline 109 % of control | [22] 103 % of control | dose: 50.0 mg/kg/injection, schedule: Q04DX003 (ip), vehicle: saline 96 % of control | [13] 103 % of control | [14] 93 % of control | [16] 90 % of control

O=C1C=Cc2ccc(O)cc2C1=O
inactive: dose: 0.57 mg/kg/injection, schedule: Q01DX Z (ip), vehicle: saline 107 % of control | dose: 0.86 mg/kg/injection, schedule: Q01DX Z (ip), vehicle: saline 109 % of control | dose: 1.3 mg/kg/injection, schedule: Q01DX Z (ip), vehicle: saline 113 % of control | dose: 2.0 mg/kg/injection, schedule: Q01DX Z (ip), vehicle: saline 101 % of control and 104 % of control | dose: 3.0 mg/kg/injection, schedule: Q01DX Z (ip), vehicle: saline 89 % of control | dose: 4.5 mg/kg/injection, schedule: Q01DX Z (ip), vehicle: saline 95 % of control | dose: 6.7 mg/kg/injection, schedule: Q01DX Z (ip), vehicle: saline 101 % of control and 90 % of control | dose: 10.0 mg/kg/injection, schedule: Q01DX001 (ip), vehicle: acetone 104 % of control
